“Also recorded” adds a separate entry of the source.
Assays:
CD200R = CD200R expression on NK cell surface, by FACS; format: cell-based, human; settings: PB derived NK cells; SR1 10-1000 nM, 14 and 21 days, vs cytokines only; FIG. 4A
From the text: (§1) For FACS analysis cells were stained with the following fluorescent antibodies: CD15 FITC, Cat. No. 332778, CD14 FITC, Cat. No. 345784, CD3 APC, Cat. No. 345767, all from Becton Dickinson (San Jose, Calif., USA), CD62L PE, Cat. No. 304806 from BioLegend (San Diego, Calif., USA), CD56 FITC, Cat. No. 11-0569-42 from eBioscience (San Diego, Calif., USA) and CD45 PE, Cat. No. R7807 from Dako (Glostrup, Denmark) and anti-CD200R and anti-PD-1 fluorescent antibodies. The cells were washed with a PBS solution containing 1% BSA, and stained (at 4° C. for 30 min) with fluorescein isothiocyanate (FITC)- or phycoerythrin (PE)-conjugated antibodies or allophycocyanin (APC). The cells were then washed in the above buffer and analyzed using a FACScalibur® flow cytometer (Becton Dickinson, San Jose, Calif., USA). The cells were passed at a rate of up to 1000 cells/second, using a 488 nm or 661 nm argon laser beam as the light source for excitation. Emission of 10^4 cells was measured using logarithmic amplification, and analyzed using the CellQuest software (Becton Dickinson). Cells stained with FITC, PE and APC-conjugated isotype control antibodies were used to determine background fluorescence. […] NK cells were stained with specific antibodies for the specified surface markers (CD62L, CD200R, PD-1) after 3 weeks incubation with SR1, and then monitored by FACS.

CD3+CD56− cells = assay: T-cell fraction (CD3+CD56-) in cultures of T-cell depleted peripheral blood NK cells, by FACS; format: cell-based, human; settings: 21 day cultures; SR1 10 to 1000 nM vs cytokines only (SR1 0); FIG. 2
Protocol: For depletion procedure, total nuclear cells from umbilical cord blood (CB), bone marrow (BM) or peripheral blood (PB) cells were layered on a Ficoll-Hypaque gradient (1.077 g/mL; Sigma), and centrifuged at 800×g for 30 minutes for separation of the mononuclear cells. The cells in the interface layer were collected and washed three times in phosphate-buffered saline (PBS) (Biological Industries, Israel) containing 0.5% HSA. Optionally, cells are not separated on the Ficoll-Hypaque gradient but washed three times in phosphate-buffered saline (PBS) (Biological Industries) containing 0.5% HSA (“total mononuclear fraction”). CD3 cells were depleted using the CD3 cell isolation kit (Miltenyi Biotec Bergisch, Gladbach, Germany) and the entire CD3 negative cell fraction was cultured. […] After negative depletion the cells were counted and characterized by FACS analysis. […] To estimate number of cells in culture, cell samples were counted following staining with trypan blue. […] The cells were then washed in the above buffer and analyzed using a FACScalibur® flow cytometer (Becton Dickinson, San Jose, Calif., USA). […] Emission of 10^4 cells was measured using logarithmic amplification, and analyzed using the CellQuest software (Becton Dickinson). Cells stained with FITC, PE and APC-conjugated isotype control antibodies were used to determine background fluorescence.

PD-1 = PD-1 expression on NK cell surface, by FACS; format: cell-based, human; settings: PB derived NK cells; SR1 10-1000 nM, 14 and 21 days, vs cytokines only; FIG. 4B
From the text: as §1

human NK cells = assay: In-vivo homing and engraftment of cultured, CFSE-stained human NK cells in spleen of irradiated NSG mice; set-up: species or system NOD.Cg-Prkdcscid Il2rgtm1Wjl/SzJ (NSG) mice; settings: 15×10^6 NK cells cultured 2-3 weeks with SR1 vs without; irradiated (350 Rad) NSG mice; 4 days post infusion; FIG. 5
Protocol: NK cells were expanded with or without 1000 nM SR1, as described above. After 2 weeks in culture, cells were stained with CFSE and similar numbers (15×10^6) of cells were infused into irradiated (350 Rad) NSG mice. Mice were sacrificed 4-days post infusion. Spleens were analyzed for the homing and engraftment of human NK cells based on the CFSE fluorescence, in order to distinguish them from endogenous cells. Engraftment is expressed as the % of cells staining with CFSE. Irradiated (350 Rad) NOD.Cg-Prkdcscid Il2rgtm1Wjl/SzJ (NSG) mice received 15×10^6 cells from human peripheral blood NK (T-cell depleted) cultures maintained for up to 3 weeks with SR1 or without (SR1 0) SR1. Prior to infusion NK cells were stained with CFSE. Upon sacrifice of the mice 4 days post infusion, samples of spleen were evaluated by FACS for the percent of cells that are stained with CFSE.

[1] = system: human peripheral blood NK cells; assay: Ex-vivo expansion of T-cell depleted peripheral blood NK cells in culture with cytokines; format: cell-based
Protocol: For depletion procedure, total nuclear cells from umbilical cord blood (CB), bone marrow (BM) or peripheral blood (PB) cells were layered on a Ficoll-Hypaque gradient (1.077 g/mL; Sigma), and centrifuged at 800×g for 30 minutes for separation of the mononuclear cells. The cells in the interface layer were collected and washed three times in phosphate-buffered saline (PBS) (Biological Industries, Israel) containing 0.5% HSA. Optionally, cells are not separated on the Ficoll-Hypaque gradient but washed three times in phosphate-buffered saline (PBS) (Biological Industries) containing 0.5% HSA (“total mononuclear fraction”). CD3 cells were depleted using the CD3 cell isolation kit (Miltenyi Biotec Bergisch, Gladbach, Germany) and the entire CD3 negative cell fraction was cultured. […] After negative depletion the cells were counted and characterized by FACS analysis. […] To estimate number of cells in culture, cell samples were counted following staining with trypan blue. […] In order to calculate the number of NK cells on day 0, the total number of cells seeded on day 0 was multiplied by the percent of CD56+/CD3− cells measured by the FACS on day 0. […] In order to determine the number of NK cells in culture, the total number of cells in culture was multiplied by the percent of CD56+/CD3− cells measured with the FACS on days 14 or 21. […]

CD62L = CD62L expression on NK cell surface, by FACS; format: cell-based, human; settings: PB derived NK cells; SR1 10-1000 nM, 14 and 21 days, vs cytokines only; FIG. 3
From the text: as §1

CC(C)n1cnc2c(NCCc3ccc(O)cc3)nc(-c3csc4ccccc34)nc21 [SR1, 4-(2-(2-(benzo[b]thiophen-3-yl)-9-isopropyl-9H-purin-6-ylamino)ethyl)phenol]
expression of CD200R (CD200R): reduced expression | percentages of CD3+CD56− cells (T-cell fraction) (CD3+CD56− cells): less prominent than in control; also recorded: lower than in control cultures | expression of PD-1 (PD-1): reduced expression | homing and engraftment into spleen (% of cells staining with CFSE) (human NK cells): significantly higher; also recorded: increased localization and engraftment | cells in culture that were NK (CD56+CD3-) cells ([1]; CD3+ or CD3+/CD19+ depleted peripheral blood mononuclear cells (2-10% NK at seeding), 2-3 weeks in culture with SR1): more than 90% | NK expansion (fold increase relative to day 0) ([1]; day 21, SR1 10-1000 nM with cytokines (IL-2, IL-15) vs cytokines only (SR1 0), FIG. 1): greatly increased expansion; also recorded: significantly higher | expression of CD62L (CD62L): dramatically enhanced expression; also recorded: strongly enhanced expression

Source: US9175266B2, “Enhancement of natural killer (NK) cell proliferation and activity” (Gamida Cell Ltd., priority 2012, dated 2015)
